Here are results for three compounds from PMC12668289 (RSC Chemical Biology, 2025).

The subject of one experiment is Pmluc-N230S (HeLa). The experiment can be described thus: Sensitivity of live reporter cell detection (LOD of cell number). The settings on record: for Limit of detection (LOD), cells: Pmluc-N230S (HeLa); for Sensitivity higher than that of 2a: Pmluc-N230S expressing HeLa. The class given is cell-based, human.
For a further experiment, the system named is Pmluc-N230S. Put plainly: BL emission spectra of luciferase-luciferin reactions. The format is biochemical, Pyrocoelia miyako. The settings on record: 100 mM HEPES pH 8.0, 25 °C.
Experiment [1] has as its target T1, Fluc (Photinus pyralis, UniProt P08659). The settings on record: Fluc; cited from earlier work.
For the next experiment, the system named is Pmluc-N230S (HepG2). The experiment can be described thus: Sensitivity of live reporter cell detection (LOD of cell number). The format is cell-based, human.
For a further experiment, the system named is SLR. The experiment can be described thus: Stability of BL signals (half-time of light emission). The class given is biochemical, Phrixothrix hirtus. The settings on record: compared to 2a. On the procedure: (§1) 1.5 Bioluminescence characterizations
(§2) Reactions of luciferases, including Photinus pyralis luciferase (Fluc), Phrixothrix hirtus luciferase (SLR), Pyrearinus termitilluminans […]
(§3) mM D-LH 2 analogues, 3 mM ATP, 6 mM MgCl2, and 10 µM luciferase in 0.2 ml of 100 mM HEPES-NaOH pH 8.0. The bioluminescence (BL) emission characteristics were recorded using a microplate reader in a BL mode (Thermo Scientific, Varioskan, LUX multimode). A digital single-lens reflex (DSLR) camera (Nikon D80, CCD sensor) with a 30-second exposure period was used to capture the BL images. […]

The target of experiment [2] is T1, Fluc. Described as above. The class given is biochemical. The settings on record: compared to 2a. As to the method: as §1, §2, §3

T1 sequence (P08659 whole entry): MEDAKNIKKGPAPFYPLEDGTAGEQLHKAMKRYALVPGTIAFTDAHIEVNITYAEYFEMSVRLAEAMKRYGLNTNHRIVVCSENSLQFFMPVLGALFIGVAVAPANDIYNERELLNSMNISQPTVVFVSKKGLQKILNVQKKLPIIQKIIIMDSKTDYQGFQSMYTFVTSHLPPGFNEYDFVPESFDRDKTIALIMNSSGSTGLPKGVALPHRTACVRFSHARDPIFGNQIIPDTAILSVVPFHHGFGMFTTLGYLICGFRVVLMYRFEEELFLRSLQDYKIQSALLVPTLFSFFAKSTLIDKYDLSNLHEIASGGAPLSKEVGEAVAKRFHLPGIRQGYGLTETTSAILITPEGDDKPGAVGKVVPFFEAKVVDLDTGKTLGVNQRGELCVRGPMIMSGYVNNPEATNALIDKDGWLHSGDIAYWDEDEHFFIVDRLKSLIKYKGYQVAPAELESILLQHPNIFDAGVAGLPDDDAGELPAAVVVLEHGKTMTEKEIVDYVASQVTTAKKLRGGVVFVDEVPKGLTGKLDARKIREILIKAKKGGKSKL

Regarding `O=C(O)[C@H]1CSC(c2nc3ccc(O)cc3s2)=N1` [Compound 2a, D-luciferin, reference compound], the “Limit of detection (LOD), cells” value with Pmluc-N230S (HeLa) (F0 (no filter)) is reported as 1428 cells; in the experiment on Pmluc-N230S (HeLa) (F2 (red filter)), 1185 cells; in the experiment on Pmluc-N230S (HepG2) (F0 (no filter)), 2010 cells; in the experiment with Pmluc-N230S (HepG2) (F2 (red filter)) it was 1880 cells. In addition, the “Bioluminescence wavelength (BLλ)” value with Pmluc-N230S worked out at 614 nm. For the same compound, on Fluc [1], the Quantum yield was 41%.
Consider `Cc1cc2nc(C3=N[C@@H](C(=O)O)CS3)sc2cc1O` [Compound 2b, 5’-methyl-D-luciferin], for which the “Limit of detection (LOD), cells” value in the experiment on Pmluc-N230S (HeLa) (F0 (no filter)) stood at 630 cells; in the experiment with Pmluc-N230S (HeLa) (F2 (red filter)), 812 cells; in the experiment on Pmluc-N230S (HepG2) (F0 (no filter)), 752 cells; with Pmluc-N230S (HepG2) (F2 (red filter)), 247 cells. The “Sensitivity higher than that of 2a” value in the experiment with Pmluc-N230S (HeLa) (F0 filter) is recorded as “about 2.3 fold”; in the experiment with Pmluc-N230S (HeLa) (F2 filter), about 1.4 fold. Further, in the experiment on SLR, the “BL half-life (t1/2) longer than that of 2a” value is “about 1.5 fold”.
For the compound `Cc1cc2nc(C3=N[C@@H](C(=O)O)CS3)sc2c(C)c1O` [Compound 2c, 5’,7’-di-methyl-D-luciferin], the “BL half-life (t1/2) longer than that of 2a” value on Fluc [2] is “about 1.7 fold”.
